Test results as given in paper PMC12794055, “High-Throughput Cardiac Hypertrophy Phenotyping Supports Lead Optimization of GRK5 Inhibitors” (ACS Medicinal Chemistry Letters, 2025).
Entries after “also recorded” stand apart in the source; their conditions may differ. Where no end group is shown, it is not given here.

How the values were obtained:
mixed cardiac cells [1] = test: Profiling of hypertrophic stimulants in mixed cardiac cell culture (Hypertrophy Score); details: stimulants at three concentrations
[2] = test system: mixed cardiac cells (CMs and non-CMs); details: for toxicity, in words: nuclei counts of CMs and non-CMs
mixed cardiac cells [3] = test: High-content hypertrophy assay (Hypertrophy Score), PE-LIF-stimulated mixed cardiac cells treated with inhibitors; details: 96 h; for antihypertrophic effect (Hypertrophy Score), in words: comparison at 8 μM
purified CMs [4] = test: Profiling of hypertrophic stimulants in purified CM culture (Hypertrophy Score)
GRK2 = details: read-out: GRK2 IC50; biochemical IC50, radiometric kinase inhibition assay; ref 40 (citation marks lost in text); cited from earlier work
purified CMs [5] = test: qPCR of hypertrophic gene expression (Nppa, Nppb) in purified CMs; type: cell-based, rat; details: 100 µM PE + 50 ng/ml LIF, 24 h

Row | Compound | hypertrophic response (Hypertrophy Score), in words (mixed cardiac cells [1]) | antihypertrophic effect (Hypertrophy Score), in words (mixed cardiac cells [3]; PE-LIF (20 μM, 50 ng/mL)) | also measured
1 | endothelin-1 (CSCSSLMDKECVYFCHLDIIW; not fully specified (bridges); ends and bridges not checked; UniProt P05305 53-73, looked up) [ET-1] | robust hypertrophic effects |  | 
2 | Cc1nc(C(=O)Nc2c(C)[nH]c(/C=C3\C(=O)Nc4ccc(C(=O)N[C@H](C)c5ccc(F)cc5)cc43)c2C)c(C)s1 [Compound 5d] |  | appeared to reduce hypertrophy | concentration at which CMs are affected ([2]; CM nuclei counts, 96 h): ≥ 2 µM; concentration from which non-CM numbers are reduced ([2]; non-CM nuclei counts, 96 h): ≥ 0.5 µM; toxicity, in words [2]: excluded due to toxicity
3 | leukemia inhibitory factor [LIF] | little to no effect |  | hypertrophic response (Hypertrophy Score), in words (purified CMs [4]): significantly increased the Hypertrophy Score
4 | Cc1[nH]c(/C=C2\C(=O)Nc3ccc(C(=O)N[C@H](C)c4ccc(F)cc4)cc32)c(C)c1NC(=O)C(=O)c1ccco1 [Compound 3] |  | partially reduced the Hypertrophy Score; also recorded: surprisingly poor cellular efficacy | IC50 (GRK2): […]; reduction in non-CM numbers (antiproliferative activity), in words ([2]; non-CM nuclei counts, 96 h): most pronounced
5 | Cc1[nH]c(/C=C2\C(=O)Nc3ccc(C(=O)N[C@H](C)c4ccc(F)cc4)cc32)c(C)c1NC(=O)[C@H](O)c1ccco1 [Compound 4b] |  | no effect at any concentration; also recorded: lacked cellular efficacy; also recorded: no antihypertrophic efficacy | reduction in non-CM numbers (antiproliferative activity), in words ([2]; non-CM nuclei counts, 96 h): absent
6 | CNC[C@H](O)c1cccc(O)c1 [PE, phenylephrine] | strongest response |  | 
7 | NC[C@H](O)c1ccc(O)c(O)c1 [NE, norepinephrine] | weaker response than PE alone |  | 
8 | transforming growth factor beta [TGFβ] | little to no effect |  | 
9 | Cc1[nH]c(/C=C2\C(=O)Nc3ccc(C(=O)N[C@H](C)c4ccc(F)cc4)cc32)c(C)c1NC(=O)c1ccoc1 [Compound 5b] |  | nor significant antihypertrophic effects; also recorded: surprisingly poor cellular efficacy | toxicity, in words [2]: neither toxicity
10 | Cc1[nH]c(/C=C2\C(=O)Nc3ccc(C(=O)N[C@H](C)c4ccc(F)cc4)cc32)c(C)c1NC(=O)[C@H]1CCC(=O)O1 [Compound 5k] |  | nor significant antihypertrophic effects; also recorded: lacked cellular efficacy | toxicity, in words [2]: neither toxicity
11 | Cc1[nH]c(/C=C2\C(=O)Nc3ccc(C(=O)N[C@H](C)c4ccc(F)cc4)cc32)c(C)c1NC(=O)[C@@H](O)c1ccco1 [Compound 4a] |  | most potent cellular inhibitor; also recorded: clear cellular effects | PE-LIF-induced upregulation of Nppa and Nppb, in words (purified CMs [5]): prevented PE-LIF-induced upregulation of Nppa and Nppb; concentration from which PE-LIF-induced Hypertrophy Score is significantly reduced (mixed cardiac cells [3]; PE-LIF (20 μM, 50 ng/mL)): ≥ 3 µM; IC50 (mixed cardiac cells [3]; Rattus norvegicus, read-out: cellular IC50 (antihypertrophic effects)): 4.7 µM
12 | Cc1nc2c(C(=O)Nc3c(C)[nH]c(/C=C4\C(=O)Nc5ccc(C(=O)N[C@H](C)c6ccc(F)cc6)cc54)c3C)cccc2[nH]1 [Compound 5m] |  | partially reduced the Hypertrophy Score | 
13 | Cc1[nH]c(/C=C2\C(=O)Nc3ccc(C(=O)N[C@H](C)c4ccc(F)cc4)cc32)c(C)c1NC(=O)C1CCOCC1 [Compound 5i] |  | partially reduced the Hypertrophy Score | 
